Several values for one entry are separate records, joined by “and”; a condition that tells them apart may be missing. Identical values can stand only once. Activity calls are given as the source filed them.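 How the source made its calls: active means fitted curve rises past activity 40 at a concentration no higher than the top valid tested dose; inconclusive means flat curve at 30 to 70 percent, or poor fit; inactive means the rest, including activity in the opposite direction.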

The test system of the first assay is C. neoformans lysis, adenylate kinase release luminescence, 4 h. Briefly: inducers of C. neoformans cell lysis, dose response, AK release luminescence, dry powder, set 3 (AID 743302).
Conditions: not given
Consider `COc1cccc(OCCn2c(=S)[nH]c3ccccc32)c1`, for which the AC40 is > 15000 nM (inactive).
Still for that read-out and setting: the value for `CC(C)c1ccc(OCCn2c(=S)[nH]c3ccccc32)cc1` was 172 nM.
The same measure, in the same setting: the value for `Cc1ccc(C(C)C)c(OCCn2c(=S)[nH]c3ccc(F)cc32)c1` was 1060 nM.
Same read-out and setting: the value for `Cc1ccc(C)c(OCCn2c(=S)[nH]c3ccccc32)c1` was 1820 nM; that for `Cc1cccc(OCCn2c(=S)[nH]c3ccccc32)c1C` was > 15000 nM (inactive); that for `Fc1ccc2c(c1)[nH]c(=S)n2CCOc1ccccc1` was 3060 nM and 1950 nM.
Consider `Cc1ccc(OCCn2c(C)nc3ccccc32)cc1`, for which the AC40 is > 15000 nM (inactive).
Still for that read-out and setting: the value for `S=c1[nH]c2ccccc2n1CCOc1ccccc1Cl` was 902 nM; that for `Cc1ccc(OCCn2c(=S)[nH]c3ccccc32)cc1` was 1140 nM; that for `CC(C)c1ccccc1OCCn1c(=S)[nH]c2ccccc21` was 1110 nM.
Same read-out and setting: to `Fc1cccc2c1[nH]c(=S)n2CCOc1ccccc1` belongs 3180 nM and 2700 nM and 1570 nM; to `Cc1ccc(C(C)C)c(OCCn2c(=S)[nH]c3ccc(Cl)cc32)c1`, > 15000 nM (inactive); to `Cc1ccc(OCCn2cnc3ccccc32)c(C(C)C)c1`, 3820 nM.
On the same count and under the same terms, to `COc1ccc(OCCn2c(=S)[nH]c3ccccc32)cc1` belongs 13700 nM; to `COCc1nc2ccccc2n1CCOc1ccc(C(C)(C)C)cc1`, 6790 nM; to `CC(C)(C)c1ccc(OCCn2cnc3ccccc32)cc1`, 1950 nM.
Consider `Fc1ccc2[nH]c(=S)n(CCOc3ccccc3)c2c1`, for which the AC40 is > 15000 nM (inactive).
In the case of `Cc1cccc(OCCn2c(=S)[nH]c3ccc(C(F)(F)F)cc32)c1`, the AC40 was 14300 nM.
As for `Cc1cccc(OCCn2c(=S)[nH]c3ccccc32)c1`, the AC40 was 910 nM.
On the same count and under the same terms, to `O=c1[nH]c2ccccc2n1CCOc1ccccc1` belongs > 15000 nM (inactive).
Still for that read-out and setting: the value for `Cc1ccc(OCCn2cnc3ccccc32)cc1` was > 15000 nM (inactive); that for `Cc1cccc(OCCn2c(=S)[nH]c3c(F)cccc32)c1` was 726 nM and 1300 nM.
On the same count and under the same terms, the value for `Cc1ccc(C(C)C)c(OCCn2c(=S)[nH]c3c(C)cccc32)c1` was 1820 nM.
Take `Cc1ccc(C(C)C)c(OCCn2c(=S)[nH]c3cccc(Cl)c32)c1`: the AC40 was > 15000 nM (inactive).
On the same count and under the same terms, the value for `Cc1ccc(C(C)C)c(OCCn2c(=S)[nH]c3c(Cl)cccc32)c1` was > 15000 nM (inactive).
On the same count and under the same terms, the value for `Cc1ccc(C(C)C)c(OCCn2c(=S)[nH]c3cccc(F)c32)c1` was > 15000 nM (inactive).
The same measure, in the same setting: to `Cc1ccc(C(C)C)c(OCCn2c(CO)nc3ccccc32)c1` belongs 14000 nM; to `Cc1ccccc1OCCn1c(=S)[nH]c2ccccc21`, 1870 nM; to `Cc1cccc(OCCn2c(=S)[nH]c3cc(F)ccc32)c1`, 581 nM and 1820 nM.
On to `Cc1cccc2[nH]c(=S)n(CCOc3ccccc3)c12`, for which the AC40 is 211 nM.
Take `S=c1[nH]c2ccccc2n1CCOc1ccc(Cl)cc1`: the AC40 was 1190 nM.
Same read-out and setting: to `S=c1[nH]c2cc(Cl)ccc2n1CCOc1ccccc1` belongs 358 nM; to `S=c1[nH]c2cccc(Cl)c2n1CCOc1ccccc1`, 3600 nM and 619 nM; to `Fc1cccc(OCCn2c(=S)[nH]c3ccccc32)c1`, 3270 nM.
The same measure, in the same setting: the value for `Cc1cccc(OCCn2c(=S)[nH]c3cc(C(F)(F)F)ccc32)c1` was > 15000 nM (inactive); that for `Cc1ccc(OCCn2c(=S)[nH]c3ccccc32)c(C)c1` was > 15000 nM (inactive); that for `Cc1ccc(C(C)C)c(OCCn2c(=S)[nH]c3cccc(C)c32)c1` was 8260 nM.
On the same count and under the same terms, to `c1ccc(OCCn2cnc3ccccc32)cc1` belongs > 15000 nM (inactive); to `Cc1ccc2c(c1)[nH]c(=S)n2CCOc1ccccc1`, 4240 nM and 940 nM.
With `Cc1ccc(OCCn2c(SCCO)nc3ccccc32)c(C(C)C)c1`, the AC40 is > 15000 nM (inactive).
On the same count and under the same terms, to `Cc1ccc(OCCn2c(=S)[nH]c3ccccc32)c(C(C)C)c1` belongs 9540 nM and 1410 nM; to `Fc1ccccc1OCCn1c(=S)[nH]c2ccccc21`, 8740 nM.
Consider `CCOc1ccc(OCCn2c(=S)[nH]c3ccccc32)cc1`, for which the AC40 was 1380 nM.
Same read-out and setting: to `Cc1ccc(C(C)C)c(OCCn2c(=S)[nH]c3cc(F)ccc32)c1` belongs 5510 nM; to `CC(C)(C)c1ccccc1OCCn1c(=S)[nH]c2ccccc21`, 3230 nM.
On the same count and under the same terms, the value for `Cc1ccc(C(C)C)c(OCCn2c(=S)[nH]c3ccccc32)c1` was 3570 nM and 2720 nM; that for `CC(C)c1ccccc1NCCn1c(=S)[nH]c2ccccc21` was 5860 nM.

Tested on in a further assay: not listed separately
The description is as above. The following applies: C. neoformans lysis, adenylate kinase release luminescence, 4 h; at 15 µM (top of the series).
As for `Fc1ccc(OCCn2c(=S)[nH]c3ccccc32)cc1`, the cell lysis activity was -54.7% (inactive).
With `CC(C)(C)c1ccc(OCCn2c(=S)[nH]c3ccccc32)cc1`, the cell lysis activity is 4.17% (inactive).
The same measure, in the same setting: the value for `COc1ccccc1OCCn1c(=S)[nH]c2ccccc21` was -4.68% (inactive); that for `Cc1ccc(C(C)C)c(OCCn2c(=S)[nH]c3c(F)cccc32)c1` was -28.6% (inactive); that for `CSc1nc2ccccc2n1CCOc1cc(C)ccc1C(C)C` was 3.47% (inactive).
In the case of `S=c1[nH]c2ccccc2n1CCOc1ccccc1`, the cell lysis activity is 33.9% (inactive).

These data come from PubChem BioAssay AID743302 (Broad Institute, 2014).
